For 31 compounds, IC50 results are on record in US20220274979A1 (Bayer Pharma Aktiengesellschaft, priority 2018, published 2022).

Broadly, the IC50 is the midpoint of a concentration-inhibition curve.

The target in this experiment is T1, Epidermal Growth Factor Receptor (EGFR) (Homo sapiens, UniProt P00533).
T1 construct: purchased Sigma-Aldrich E3641
T1 sequence (P00533 25-1210): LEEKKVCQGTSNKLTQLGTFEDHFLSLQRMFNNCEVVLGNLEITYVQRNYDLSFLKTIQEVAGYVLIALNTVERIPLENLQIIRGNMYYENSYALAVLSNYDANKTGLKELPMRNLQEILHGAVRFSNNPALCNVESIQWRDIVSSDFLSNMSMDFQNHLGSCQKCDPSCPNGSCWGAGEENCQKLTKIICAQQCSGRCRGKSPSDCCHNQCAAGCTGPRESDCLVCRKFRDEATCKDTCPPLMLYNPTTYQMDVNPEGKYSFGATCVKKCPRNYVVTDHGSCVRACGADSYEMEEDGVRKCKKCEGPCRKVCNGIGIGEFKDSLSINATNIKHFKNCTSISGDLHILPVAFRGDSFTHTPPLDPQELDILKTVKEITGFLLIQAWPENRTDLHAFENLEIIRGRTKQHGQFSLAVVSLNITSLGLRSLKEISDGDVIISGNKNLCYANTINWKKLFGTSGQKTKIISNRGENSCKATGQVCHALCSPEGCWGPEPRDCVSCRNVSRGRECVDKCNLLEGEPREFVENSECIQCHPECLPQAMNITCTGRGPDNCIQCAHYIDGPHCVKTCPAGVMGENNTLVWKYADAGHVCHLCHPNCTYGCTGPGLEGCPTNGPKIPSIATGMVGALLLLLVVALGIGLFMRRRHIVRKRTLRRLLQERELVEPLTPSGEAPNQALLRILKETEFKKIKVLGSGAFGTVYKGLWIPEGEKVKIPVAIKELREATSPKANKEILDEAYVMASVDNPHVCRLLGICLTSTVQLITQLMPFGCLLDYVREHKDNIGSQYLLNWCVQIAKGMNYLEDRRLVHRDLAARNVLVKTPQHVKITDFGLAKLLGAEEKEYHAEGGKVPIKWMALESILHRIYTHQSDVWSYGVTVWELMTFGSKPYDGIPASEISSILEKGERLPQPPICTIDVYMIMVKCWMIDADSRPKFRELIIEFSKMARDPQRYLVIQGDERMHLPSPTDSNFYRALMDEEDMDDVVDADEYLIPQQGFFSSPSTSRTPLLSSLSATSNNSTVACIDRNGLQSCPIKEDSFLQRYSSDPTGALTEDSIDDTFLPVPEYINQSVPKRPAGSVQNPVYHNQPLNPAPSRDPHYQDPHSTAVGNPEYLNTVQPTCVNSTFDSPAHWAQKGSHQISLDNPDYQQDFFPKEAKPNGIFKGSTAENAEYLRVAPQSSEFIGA
As to the kind of experiment: EGFR kinase assay (TR-FRET). The settings on record: 10 μM ATP; read-out: EGFR kinase inhibition IC50. The format is biochemical. The text has this: EGFR inhibitory activity of compounds of the present invention was quantified employing the TR-FRET based EGFR assay as described in the following paragraphs.
Epidermal Growth Factor Receptor (EGFR) affinity purified from human carcinoma A431 cells (Sigma-Aldrich, # E3641) was used as kinase. As substrate for the kinase reaction the biotinylated peptide biotin-Ahx-[…] (SEQ ID NO: 8, C-terminus in amid form) was used which can be purchased e.g. form the company Biosyntan GmbH (Berlin-Buch, Germany).
For the assay 50 nL of a 100 fold concentrated solution of the test compound in DMSO was pipetted into a black low volume 384 well microtiter plate (Greiner Bio-One, Frickenhausen, Germany), 2 μL of a solution of EGFR in aqueous assay buffer [50 mM Hepes/HCl pH 7.0, 1 mM MgCl2, 5 mM MnCl2, 0.5 mM activated sodium ortho-vanadate, 0.005% (v/v) Tween-20]were added and the mixture was incubated for […] at 22° C. to allow pre-binding of the test compounds to the enzyme before the start of the kinase reaction. Then the kinase reaction was started by the addition of 3 μL of a solution of adenosine-tri-phosphate (ATP, 16.7 μM=>final conc. in the 5 μL assay volume is 10 μM) and substrate (1.67 μM =>final conc. in the 5 μL assay volume is 1μM) in assay buffer and the resulting mixture was incubated for a reaction time of […] at 22° C. The concentration of EGFR was adjusted depending of the activity of the enzyme lot and was chosen appropriate to have the assay in the linear range, typical concentration were about 3 U/ml. The reaction was stopped by the addition of 5 μl of a solution of HTRF detection reagents (0.1 μM streptavidine-XL665 [Cis Biointernational]and 1 nM PT66-Tb-Cryptate, an terbium-cryptate labelled anti-phospho-tyrosine antibody from Cis Biointernational [instead of the PT66-Tb-cryptate PT66-Eu-Chelate from Perkin Elmer can also be used]) in an aqueous EDTA-solution (80 mM EDTA, 0.2% (w/v) bovine serum albumin in 50 mM HEPES pH 7.5).
The resulting mixture was incubated 1 h at 22° C. to allow the binding of the biotinylated phosphorylated peptide to the streptavidine-XL665 and the PT66-Eu-Chelate. Subsequently the amount of phosphorylated substrate was evaluated by measurement of the resonance energy transfer from the PT66-Tb-Cryptate to the streptavidine-XL665. Therefore, the fluorescence emissions at 620 nm and 665 nm after excitation at 337 nm were measured in a HTRF reader, e.g. a Pherastar (BMG Labtechnologies, Offenburg, Germany) or a Viewlux (Perkin-Elmer). The ratio of the emissions at 665 nm and at […] was taken as the measure for the amount of phosphorylated substrate.
In general terms: Time-resolved FRET reads energy transfer from a long-lived donor to a nearby acceptor.
As to `CC(=O)NC1CCN(c2cc3c(N[C@H](C)c4cccc(Br)c4)nc(C)nc3cn2)C1` (mixture of isomers) [Example 42, N-[1-(4-{[(1R)-1-(3-bromophenyl)ethyl]amino}-2-methylpyrido[3,4-d]pyrimidin-6-yl)pyrrolidin-3-yl]acetamide], the IC50 was more than 20 µM. In the case of `Cc1nc(NC(C)c2ccc(-c3ccccc3CN(C)C)s2)c2cc(C3CCN(C)C3=O)ncc2n1` (mixture of isomers) [Example 69, 3-(4-{[1-(5-{2-[(dimethylamino)methyl]phenyl}thiophen-2-yl)ethyl]amino}-2-methylpyrido[3,4-d]pyrimidin-6-yl)-1-methylpyrrolidin-2-one], the IC50 was more than 20 µM. In the case of `Cc1nc(NC(C)c2ccc(-c3ccccc3CN(C)C)s2)c2cc(C3(O)CCN(C)C3=O)ncc2n1` (mixture of isomers) [Example 85, 3-(4-{[1-(5-{2-[(dimethylamino)methyl]phenyl}thiophen-2-yl)ethyl]amino}-2-methylpyrido[3,4-d]pyrimidin-6-yl)-3-hydroxy-1-methylpyrrolidin-2-one], the concentration for half-maximal inhibition (IC50) was more than 20 µM.

With `CCOc1cc2c(NC(C)c3cccc4sccc34)nc(C)nc2cn1` (stereo not shown) [Example 3, N-[1-(1-benzothiophen-4-yl)ethyl]-6-ethoxy-2-methylpyrido[3,4-d]pyrimidin-4-amine], the IC50 is more than 20 µM.

`COc1cc2c(NC(C)c3cccc4sccc34)nc(C)nc2cn1` (stereo not shown) [Example 4, N-[1-(1-benzothiophen-4-yl)ethyl]-6-methoxy-2-methylpyrido[3,4-d]pyrimidin-4-amine]: the IC50 was more than 20 µM. The result for `CCOc1cc2c(N[C@H](C)c3cccc(Br)c3)nc(C)nc2cn1` [Example 5, N-[(1R)-1-(3-bromophenyl)ethyl]-6-ethoxy-2-methylpyrido[3,4-d]pyrimidin-4-amine] reads more than 20 µM; that for `CCOc1cc2c(N[C@H](C)c3cccc(Cl)c3)nc(C)nc2cn1` [Example 6], more than 20 µM; that for `CCOc1cc2c(N[C@H](C)c3cccc(S(C)(=O)=O)c3)nc(C)nc2cn1` [Example 7, 6-ethoxy-2-methyl-N-{(1R)-1-[3-(methylsulfonyl)phenyl]ethyl}pyrido[3,4-d]pyrimidin-4-amine], more than 20 µM. The result for `COc1cc2c(N[C@H](C)c3ccc(F)c(Cl)c3)nc(C)nc2cn1` [Example 8] reads more than 20 µM; that for `Cc1nc(N[C@H](C)c2ccc(F)cc2)c2cc(F)ncc2n1` [Example 9], more than 20 µM.

As to `Cc1nc(N[C@H](C)c2ccc(F)cc2)c2cc(OCC3CCOCC3)ncc2n1` [Example 11, N-[1R)-1-(4-fluorophenypethyl]-2-methyl-6-(tetrahydro-2H-pyran-4-ylmethoxy)-pyrido[3,4-d]pyrimidin-4-amine], the half-inhibitory concentration (IC50) is more than 20 µM.

With `COc1cc2c(N[C@H](C)c3ccc(F)c(C4CC4)c3)nc(C)nc2cn1` [Example 12], the IC50 was more than 20 µM.

With `CCOc1cc2c(N[C@H](C)c3ccc(Br)cc3)nc(C)nc2cn1` [Example 13, N-[(1R)-1-(4-bromophenyl)ethyl]-6-ethoxy-2-methylpyrido[3,4-d]pyrimidin-4-amine], the IC50 was more than 20 µM. As to `COc1cc2c(NC(C)c3cccc4c3cnn4C)nc(C)nc2cn1` (stereo not shown) [Example 14, 6-methoxy-2-methyl-N-[1-(1-methyl-1H-indazol-4-yl)ethyl]pyrido[3,4-d]pyrimidin-4-amine], the IC50 is more than 20 µM. For `Cc1nc(N[C@H](C)c2ccc(F)cc2)c2cc(OC(C)C)ncc2n1` [Example 15], the 50% inhibitory concentration (IC50) was more than 20 µM. The result for `COc1cc2c(NC(C)c3cccc4nn(C)cc34)nc(C)nc2cn1` (stereo not shown) [Example 17, 6-methoxy-2-methyl-N-[1-(2-methyl-2H-indazol-4-yl)ethyl]pyrido[3,4-d]pyrimidin-4-amine] reads more than 20 µM; that for `CCOc1cc2c(N[C@H](C)c3ccc(C#N)cc3)nc(C)nc2cn1` [Example 18, 4-{(1R)-1-[(6-ethoxy-2-methylpyrido[3,4-d]pyrimidin-4-yl)amino]ethyl}benzonitrile], more than 20 µM. Turning to `Cc1nc(N[C@H](C)c2cccc(Br)c2)c2nc(OCc3ccccc3)ncc2n1` [Example 20, 6-(benzyloxy)-N-[(1R)-1-(3-bromophenyl)ethyl]-2-methylpyrimido[5,4-d]pyrimidin-4-amine], the 50% inhibitory concentration (IC50) is more than 20 µM. In the case of `Cc1nc(N[C@H](C)c2cccc(Br)c2)c2nc(N(C)C)ncc2n1` [Example 21], the IC50 is more than 20 µM. For `Cc1nc(N[C@H](C)c2cccc(Br)c2)c2nc(N3CCOCC3)ncc2n1` [Example 22, N-[(1R)-1-(3-bromophenyl)ethyl]-2-methyl-6-(morpholin-4-yl)pyrimido[5,4-d]pyrimidin-4-amine], the IC50 was more than 20 µM. With `CCOc1ncc2nc(C)nc(N[C@H](C)c3cccc(Br)c3)c2n1` [Example 23, N-[(1R)-1-(3-bromophenyl)ethyl]-6-ethoxy-2-methylpyrimido[5,4-d]pyrimidin-4-amine], the IC50 was more than 20 µM. Take `COc1ncc2nc(C)nc(N[C@H](C)c3cccc(Br)c3)c2n1` [Example 24, N-[(1R)-1-(3-bromophenyl)ethyl]-6-methoxy-2-methylpyrimido[5,4-d]pyrimidin-4-amine]: the IC50 was more than 20 µM. As to `Cc1nc(N[C@H](C)c2cccc(Br)c2)c2nc(Oc3ccccc3)ncc2n1` [Example 25, N-[(1R)-1-(3-bromophenyl)ethyl]-2-methyl-6-phenoxypyrimido[5,4-d]pyrimidin-4-amine], the IC50 was more than 20 µM. With `COCCOc1ncc2nc(C)nc(N[C@H](C)c3cccc(Br)c3)c2n1` [Example 26, N-[(1R)-1-(3-bromophenyl)ethyl]-6-(2-methoxyethoxy)-2-methylpyrimido[5,4-d]pyrimidin-4-amine], the half-inhibitory concentration (IC50) was more than 20 µM. With `Cc1nc(N[C@H](C)c2cccc(Br)c2)c2nc(N3CCOCC3)ccc2n1` [Example 27, N-[(1R)-1-(3-bromophenyl)ethyl]-2-methyl-6-(morpholin-4-yl)pyrido[3,2-d]pyrimidin-4-amine], the half-maximal inhibitory concentration (IC50) was more than 20 µM.

Turning to `COc1ccc2nc(C)nc(N[C@H](C)c3cccc(Br)c3)c2n1` [Example 28, N-[(1R)-1-(3-bromophenyl)ethyl]-6-methoxy-2-methylpyrido[3,2-d]pyrimidin-4-amine], the IC50 was more than 20 µM. `CCOc1ccc2nc(C)nc(N[C@H](C)c3cccc(Br)c3)c2n1` [Example 29, N-[(1R)-1-(3-bromophenyl)ethyl]-6-ethoxy-2-methylpyrido[3,2-d]pyrimidin-4-amine]: the IC50 is more than 20 µM. As for `COCCOc1ccc2nc(C)nc(N[C@H](C)c3cccc(Br)c3)c2n1` [Example 30, N-[(1R)-1-(3-bromophenyl)ethyl]-6-(2-methoxyethoxy)-2-methylpyrido[3,2-d]pyrimidin-4-amine], the IC50 was more than 20 µM.

For `Cc1nc(N[C@H](C)c2cccc(Br)c2)c2nc(N(C)C)ccc2n1` [Example 31], the IC50 was more than 20 µM. The result for `Cc1nc(N[C@H](C)c2cccc(Br)c2)c2nc(Oc3ccccc3)ccc2n1` [Example 32, N-[(1R)-1-(3-bromophenyl)ethyl]-2-methyl-6-phenoxypyrido[3,2-d]pyrimidin-4-amine] reads more than 20 µM; that for `Cc1nc(N[C@H](C)c2cccc(Br)c2)c2nc(OCc3ccccc3)ccc2n1` [Example 33, 6-(benzyloxy)-N-[(1R)-1-(3-bromophenyl)ethyl]-2-methylpyrido[3,2-d]pyrimidin-4-amine], more than 20 µM.
